Results taken from patent US12636253B2, “Modified release compositions of nafamostat and methods of using same” (Ensysce Biosciences Inc., priority 2021, dated 2026).
Like-named read-outs stand apart in the source and are kept apart here.

Assays:
[1] = cited from earlier work
[2] = Effect of nafamostat on plasma oxycodone after oral KC-8 in rats; format: in vivo; details: nafamostat co-administered with an oxycodone or hydromorphone derivative
Procedure: The drug nafamostat mesylate was added to the formulations containing the KC-8 oxycodone-derivative. In the examples described herein, the terms “nafamostat mesylate” and “nafamostat” are used interchangeably.
Formulations containing both KC-8 and optionally nafamostat were administered orally to rats. The KC-8 dose was 5 mg/kg and the nafamostat concentration was 0, 0.1, 0.5, or 1 mg/kg. Plasma concentrations of active oxycodone were measured at various time intervals over 24 hours after administration.
In contrast, additional nafamostat reduced the maximum oxycodone concentration to a peak of about 0.75 ng/ml at about 5 hours. The error bars represent one standard deviation.
In particular, the rats received 50 mg/kg of KC-8 and 0, 1, 5, or 10 mg/kg of nafamostat. With zero nafamostat, blood plasma concentration experienced a maximum of about 22 ng/ml at about 2 hours, wherein the concentration rapidly descended thereafter. In alignment with the data of FIG. 2, higher concentrations of nafamostat reduced the peak concentration to about 3 ng/ml at about 8 hours.

[3] = Blood hydromorphone after 1, 3, 6 or 10 pills of PF329 with or without nafamostat in rats; format: in vivo; details: rats, 1, 3, 6 or 10 PF329 pills containing nafamostat (FIG. 5)
Text: The rat experiments were repeated with a derivative of hydromorphone (referred to herein as PF329), which is another known pain medication. FIGS. 4 and 5 show the blood concentration of active hydromorphone (HM) after the administration of 1, 3, 6, or 10 pills, either without or with nafamostat.

SMILES	safety and tolerability ([1]; previous SAD study, doses of up to 200 mg KC-8 (80 mg oxycodone))	effect on maximum concentration of active drug in blood plasma [2]	safety and tolerability ([1]; 200 mg nafamostat, healthy volunteer SAD data)	change of hydromorphone blood concentration on administering more pills [3]
COc1ccc2c3c1O[C@H]1C(OC(=O)N(C)CC(C)(C)CNC(=O)[C@H](CCCNC(=N)N)NC(=O)CNC(=O)CC(=O)O)=CC[C@@]4(O)[C@@H](C2)N(C)CC[C@]314 [KC-8, N-1-[3-(oxycodone-6-enol-carbonyl-methyl-amino)-2,2-dimethyl-propylamine]-arginine-glycine-malonic acid]	safe and well tolerated			
N=C(N)c1ccc2cc(OC(=O)c3ccc(N=C(N)N)cc3)ccc2c1 [nafamostat, 6-carbamimidoylnaphthalen-2-yl 4-(diaminomethyleneamino)benzoate]		significantly reduced the maximum concentration of active drug in blood plasma	safe and well tolerated	little increase
